Measurements from patent publication US8067430B1, “Anti-HIV activity of the opioid antagonist naloxone” (University of South Florida, priority 2003, dated 2011).
Structures can show the parent of a compound that is named as a salt.

What was measured:
recombinant RT = molecular target: T1, recombinant RT (Human immunodeficiency virus type 1 group M subtype B, UniProt P04585); assay: Effect on recombinant RT; assay type: biochemical; conditions: different molar concentrations; protein not within the HIV viral lysate
T1 construct: effect of different molar concentrations of naloxone on recombinant RT

[1] = tested on: HIV gp41 transmembrane envelope glycoprotein RNA; assay: RT-PCR of gp41 RNA from HIV infected target cells; assay type: cell-based, HIV-MN; conditions: different molar concentrations, hydrochloride
Text: Total RNA from the preparations described above was used as a template for the generation of complementary DNA (cDNA). This was accomplished through the use of commercial RT-PCR kits (Gibco/BRL/Life Technologies, Inc., Rockville, Md.). […]

[2] = tested on: HIV-1 gp120 (external envelope glycoprotein); assay: Immunoblot (Western blot) of gp120 in lysates of HIV infected Supt 1 cells; assay type: cell-based, HIV-1MN
Method: The expression of the essential HIV coat protein gp120 is measured by this technique. Western Blot analysis of gp120 detected with a murine anti-gp120 monoclonal antibody from HIV-1 infected cells treated with naloxone or AZT. HIV-MN infected Supt 1 cells treated will different molar concentrations of naloxone or AZT. Cells were lysed at 3 days after infection of the cells with cell free HIV-1MN and 100 μg of the lysate was loaded onto SDS-PAGE, transferred onto a Hybond ECL membrane and detected with an anti-gp120 monoclonal antibody. VC=viral control (infected cells with no drug treatment).
200TCID-50 per milliliter (tissue culture infectious dose) of HIV-MN cell free virus was used to infect 500,000/milliliter of a human T cell line (called SupTI) in the presence (at a range of concentrations) or absence (control) of naloxone-HC1/or AZT. The TCID-50 is an amount of virus which will infect 50% of non-infected target cells. The virus+cells+drugs (naloxone or AZT) were incubated at 37 degrees Celsius in an atmosphere of 5% carbon dioxide for three days. Cells were lysed by using a detergent 1% Triton-X100. This preparation was frozen in liquid nitrogen and thawed at 37 degrees Celsius for three cycles. The preparation was vortexed vigorously for 20 seconds at the end of each cycle. Samples were then stored at −80 degrees Celsius until analysis. […]

GADPH = assay: RT-PCR control: expression of constitutive enzyme GADPH; assay type: cell-based, human; conditions: housekeeping gene control in RT-PCR
Method: Total RNA from the preparations described above was used as a template for the generation of complementary DNA (cDNA). This was accomplished through the use of commercial RT-PCR kits (Gibco/BRL/Life Technologies, Inc., Rockville, Md.). The gene for the HIV gp41 transmembrane envelope glycoprotein was amplified from the RT products through the use of the following PCR cycling conditions: 94 degrees Celsius for 2 minutes followed by 52 degrees Celsius for 1 minutes then followed by 32 cycles at 94 degrees Celsius for 1 minutes, 52 degrees Celsius for 1 minutes, 72 degrees Celsius for […], then PCR extension was accomplished at 72 degrees Celsius for 10 minutes. The cycles were then ended by incubation at 4 degrees Celsius for 16 hours. […] (microliters) of PCR products were then loaded onto a 1.5% agarose gel containing 5 μg/ml of ethidium bromide. Bands in the gel with a size of 1.2 kb was considered to be gp41 based upon the primers used in the assay: Primer Sequences are as follows: Sense: 5 prime-[…]-3 prime (SEQ ID NO:1); Antisense 5 prime-[…]-3 prime (SEQ ID NO:2). In order to eliminate the possibility that the drug treatments could have an inhibitory effect on the RT used in the RT-PCR reaction rather than the HIV RT a constitutive (i.e. always expressed) enzyme called GADPH was used as a control. […]

[3] = tested on: reverse transcriptase activity in HIV-MN infected Supt 1 cells; assay: RT activity assay on lysates of HIV-MN infected, drug-treated Supt 1 cells; assay type: cell-based
Method: 200TCID-50 per milliliter (tissue culture infectious dose) of HIV-MN cell free virus was used to infect 500,000/milliliter of a human T cell line (called SupTI) in the presence (at a range of concentrations) or absence (control) of naloxone-HC1/or AZT. The TCID-50 is an amount of virus which will infect 50% of non-infected target cells. The virus+cells+drugs (naloxone or AZT) were incubated at 37 degrees Celsius in an atmosphere of 5% carbon dioxide for three days. Cells were lysed by using a detergent 1% Triton-X100. This preparation was frozen in liquid nitrogen and thawed at 37 degrees Celsius for three cycles. The preparation was vortexed vigorously for 20 seconds at the end of each cycle. Samples were then stored at −80 degrees Celsius until analysis. Total RNA from the samples were prepared by using the Tri-reagent assay and aliquoted and stored at −80 degrees Celsius until RT-PCR (reverse transcriptase-polymerase chain reaction) analysis.
A 96 well microplate was coated with 200 μl/well of a 40 mg/ml solution of polyA and incubated at room temperature overnight with rocking. […] The color reaction in the wells was measured spectrophotometrically. Color development was proportional to the amount of RT in the wells and quantitation was made based upon a standard curve of using recombinant RT. […]

SMILES: C=CCN1CC[C@]23c4c5ccc(O)c4O[C@H]2C(=O)CC[C@@]3(O)[C@H]1C5 [naloxone, naloxone hydrochloride]
- effect on recombinant RT (recombinant RT): direct inhibitory effect on RT
- expression of RNA for envelope glycoprotein gp41 (RT-PCR) [1]: inhibiting expression of RNA for the envelope glycoprotein gp41
- expression of RNA for envelope glycoprotein gp41 (RT-PCR) ([1]; listed as Naloxone): significantly depress expression
- expression of gp120 protein (Western blot) ([2]; HIV infected lymphocytes): significantly depress expression
- inhibition of HIV as measured by gp120 expression, compared with AZT ([2]; equivalent molar concentrations, cells lysed 3 days after infection): as effective, or more effective, than equivalent molar concentrations of AZT
- effect of drug treatment on expression of GADPH (GADPH): No effect
- inhibition of RT activity in HIV infected cells compared with AZT ([3]; identical molar dose range of AZT): at least as effective as AZT
- RT activity in HIV-MN infected Supt 1 cells ([3]; treatment dose increasing from 10^-11 to 10^-4 M, 3 days, vs no drug control): RT activity decreases
